Assay results taken from US9505749B2, “Quinazolinone compounds and derivatives thereof” (AMGEN INC., priority 2012, dated 2016).
Like-named read-outs stand apart in the source and are kept apart here.

Assays:
[1] = tested on: total β-catenin in SW480 colorectal cells; test: Total β-catenin MSD 96-well plate assay for SW480 cells; settings: Homo sapiens, SW480, read-out: SW480-Total beta-catenin (TBC) IC50 IP
[2] = tested on: Axin2 accumulation in SW480 cells; test: Axin2 384 immunofluorescence assay; format: cell-based; settings: Homo sapiens, read-out: Axin2 384 IF EC50
[3] = tested on: 8×TCF promoter-driven Firefly luciferase (Wnt reporter) in DLD-1 colorectal cells; test: DLD-1-STF assay, constitutively activated Wnt pathway reporter; format: cell-based; settings: Homo sapiens
Protocol: DLD-1 colorectal cells engineered with an 8×TCF promoter-driven Firefly (FF) luciferase gene (Wnt reporter) along with an EF1a promoter-driven Renilla (RN) luciferase gene (control reporter) were used to measure the potency of tankyrase compounds in the context of the constitutively activated Wnt pathway due to mutated APC in colorectal cancer cells. The engineered DLD-1 cells were plated (45 μL) at a density of 10,000 cells/well in black, clear-bottom, 96-well View plates (PerkinElmer) in normal growth medium (RPMI with 10% FBS with no antibiotics). Tankyrase inhibitors (5 μL) were transferred to cells from a three-fold serially diluted compound plate. A 10-point dilution series was tested starting at a concentration (10 μM final concentration in assay). Column 6 contained only DMSO and served as the “HI” control. A potent Tankyrase inhibitor was used at a final concentration of 10 uM in column 12 which served as the “LO” control. […] The Dual-Glo Reagents (Promega) were added as directed by manufacturer to assay the FF and RN luciferase activity. Luciferase activity was measures using the EnVision multilabel plate reader (PerkinElmer).

PARP2 = PARP2 (Homo sapiens (Human), UniProt Q9UGN5); test: PARP2 biochemical assay (BPS kit)
PARP1 = PARP1 (Homo sapiens (Human), UniProt P09874); test: PARP1 biochemical assay (Trevigen kit)
Excerpt: PARP1 biochemical assay was purchased as a kit from Trevigen (cat.#4676-096-K) and used per manufacturers recommendations.

[4] = molecular target: 6×HIS-tankyrase1 (1091-1325) (Homo sapiens (Human), UniProt O95271); test: Tankyrase 1 biochemical assay (AlphaLisa, PARsylation); settings: 400 nM NAD, 60 minutes at RT; read-out: TNKS1 IC50
[5] = molecular target: 6×HIS-tankyrase 2 (946-1162) (Homo sapiens (Human), UniProt Q9H2K2); test: Tankyrase 2 biochemical assay (AlphaLisa, PARsylation); settings: 250 nM NAD; read-out: TNKS2 IC50
[6] = DLD-1 cells, 40 to 48 hours, read-out: DLD1-STF-FF/RL*100 IC50
[7] = DLD-1, read-out: DLD1-STF-FF/RL*100 IC50

Chain of PARP2 (Q9UGN5 whole entry): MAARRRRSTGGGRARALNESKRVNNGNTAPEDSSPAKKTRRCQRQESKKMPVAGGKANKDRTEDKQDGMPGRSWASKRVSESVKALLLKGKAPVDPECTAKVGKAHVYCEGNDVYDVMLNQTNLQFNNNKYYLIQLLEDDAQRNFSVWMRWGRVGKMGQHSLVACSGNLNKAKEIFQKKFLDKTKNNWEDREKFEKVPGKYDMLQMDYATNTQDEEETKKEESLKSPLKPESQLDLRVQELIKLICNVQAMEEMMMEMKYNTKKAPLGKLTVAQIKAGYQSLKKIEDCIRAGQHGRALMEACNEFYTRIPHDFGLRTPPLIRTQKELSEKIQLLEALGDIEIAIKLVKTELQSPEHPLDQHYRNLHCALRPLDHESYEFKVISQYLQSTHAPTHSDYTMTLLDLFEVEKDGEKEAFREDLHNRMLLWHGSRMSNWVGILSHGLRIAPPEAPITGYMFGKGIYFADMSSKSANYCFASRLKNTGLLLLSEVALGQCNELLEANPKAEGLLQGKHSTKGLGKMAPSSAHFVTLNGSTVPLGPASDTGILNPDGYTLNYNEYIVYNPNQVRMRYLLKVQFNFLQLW
Chain of PARP1 (P09874 whole entry): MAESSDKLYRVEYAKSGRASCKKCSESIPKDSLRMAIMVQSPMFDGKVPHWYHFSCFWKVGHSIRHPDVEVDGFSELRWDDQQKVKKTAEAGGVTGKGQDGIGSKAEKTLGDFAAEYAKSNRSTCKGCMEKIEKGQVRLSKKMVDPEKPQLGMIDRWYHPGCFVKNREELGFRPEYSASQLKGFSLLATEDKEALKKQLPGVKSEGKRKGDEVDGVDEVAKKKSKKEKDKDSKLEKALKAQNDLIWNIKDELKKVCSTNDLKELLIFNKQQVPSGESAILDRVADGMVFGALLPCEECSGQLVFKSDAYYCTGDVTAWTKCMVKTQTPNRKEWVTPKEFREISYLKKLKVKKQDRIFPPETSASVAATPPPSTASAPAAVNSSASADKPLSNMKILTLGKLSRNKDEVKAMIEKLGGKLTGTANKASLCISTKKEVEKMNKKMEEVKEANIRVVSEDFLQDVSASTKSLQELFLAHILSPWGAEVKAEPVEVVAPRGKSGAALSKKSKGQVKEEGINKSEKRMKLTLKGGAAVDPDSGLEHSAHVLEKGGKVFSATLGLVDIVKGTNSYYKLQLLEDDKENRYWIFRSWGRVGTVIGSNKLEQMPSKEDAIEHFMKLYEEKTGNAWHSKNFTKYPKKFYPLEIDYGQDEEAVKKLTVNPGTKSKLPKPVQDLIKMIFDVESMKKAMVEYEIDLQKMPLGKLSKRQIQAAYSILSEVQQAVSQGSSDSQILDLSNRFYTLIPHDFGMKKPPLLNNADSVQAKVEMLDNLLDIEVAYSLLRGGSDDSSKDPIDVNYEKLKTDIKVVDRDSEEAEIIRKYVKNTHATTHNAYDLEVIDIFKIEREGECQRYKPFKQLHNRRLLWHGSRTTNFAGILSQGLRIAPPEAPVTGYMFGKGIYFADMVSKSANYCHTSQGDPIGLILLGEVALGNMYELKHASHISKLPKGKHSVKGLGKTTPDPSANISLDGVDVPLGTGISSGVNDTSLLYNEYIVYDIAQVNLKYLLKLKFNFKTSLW
Chain of 6×HIS-tankyrase 2 (946-1162) (Q9H2K2 946-1162): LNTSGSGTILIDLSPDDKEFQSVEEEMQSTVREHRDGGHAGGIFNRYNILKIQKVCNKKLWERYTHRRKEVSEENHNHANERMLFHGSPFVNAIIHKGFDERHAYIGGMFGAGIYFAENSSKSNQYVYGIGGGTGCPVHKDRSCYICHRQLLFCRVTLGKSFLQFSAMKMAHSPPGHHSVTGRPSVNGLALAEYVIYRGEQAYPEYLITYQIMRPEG
Chain of 6×HIS-tankyrase1 (1091-1325) (O95271 1091-1325): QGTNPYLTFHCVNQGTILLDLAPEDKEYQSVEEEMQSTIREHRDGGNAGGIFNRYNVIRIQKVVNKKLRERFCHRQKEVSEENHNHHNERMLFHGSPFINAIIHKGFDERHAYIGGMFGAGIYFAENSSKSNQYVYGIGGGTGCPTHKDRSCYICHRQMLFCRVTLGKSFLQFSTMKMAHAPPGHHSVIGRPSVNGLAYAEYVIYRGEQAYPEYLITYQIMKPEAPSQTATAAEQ

IC50 [4] [nM] | IC50 [5] [nM] | SMILES | IC50 [1] [nM] | EC50 ([2]; SW480, 24 h) [nM] | IC50 [3, 6] [nM] | IC50 (PARP2) [nM] | IC50 (PARP1) [nM] | EC50 ([2]; SW480 cells, 24 hours) [nM] | IC50 [3, 7] [nM]
 |  | O=C(CCCc1nc2ccccc2c(=O)[nH]1)N[C@H]1CC[C@H](n2c(=O)[nH]c3cc(Cl)ccc32)CC1 [Example 74, N-((1r,4r)-4-(5-chloro-2-oxo-2,3-dihydro-1H-benzo[d]imidazol-1-yl)cyclohexyl)-4-(4-oxo-3,4-dihydroquinazolin-2-yl)butanamide trifluoroacetic acid] | 6.62 | 5.34 | 1.59 |  |  |  | 
 |  | O=C(CCSc1nc2ccccc2c(=O)[nH]1)N[C@H]1CC[C@H](Oc2ccccn2)CC1 [Example 107, 3-((4-oxo-3,4-dihydroquinazolin-2-yl)thio)-N-((1 r,4r)-4-(pyridin-2-yloxy)cyclohexyl) propanamide] | 15.4 |  |  | 3350 | > 85000 | 16.6 | 1.33
1.05 | 0.52 | N#Cc1ccc(O[C@H]2CC[C@H](NC(=O)CCCc3nc4ccccc4c(=O)[nH]3)CC2)cc1Cl [Example 64, N-(trans-4-(3-chloro-4-cyanophenoxy)cyclohexyl)-4-(4-oxo-3,4-dihydro-2-quinazolinyl)butanamide] | 26.6 |  | 1.26 | 288 | 257 | 60.9 | 
 |  | O=C(CCSc1nc2c(c(=O)[nH]1)CCCC2)N[C@H]1CC[C@H](c2nnc(-c3ccccc3)o2)CC1 [Example 115, 3-((4-oxo-3,4,5,6,7,8-hexahydroquinazolin-2-yl)thio)-N-(trans-4-(5-phenyl-1,3,4-oxadiazol-2-yl)cyclohexyl)propanamide] | 11 |  |  | 1120 | 3860 | 14.4 | 1.3
 |  | O=C(CCSc1nc2ccccc2c(=O)[nH]1)N[C@H]1CC[C@H](c2nnc(-c3ccccc3)o2)CC1 [Example 97, 3-((4-oxo-3,4-dihydroquinazolin-2-yl)thio)-N-(trans-4-(5-phenyl-1,3,4-oxadiazol-2-yl)cyclohexyl)propanamide] | 3.69 |  |  | 2450 |  | 3.88 | 0.608
 |  | N#Cc1ccc(O[C@H]2CC[C@H](NC(=O)CCSc3nc4ccccc4c(=O)[nH]3)CC2)cc1 [Example 106, N-(trans-4-(4-cyanophenoxy)cyclohexyl)-3-((4-oxo-3,4-dihydroquinazolin-2-yl)thio) propanamide] | 1.9 |  |  | 1760 |  | 4.01 | 0.275
 |  | O=C(CCSc1nc2ccccc2c(=O)[nH]1)N[C@H]1CC[C@H](Oc2ccncc2)CC1 [Example 108, 3-((4-oxo-3,4-dihydroquinazolin-2-yl)thio)-N-((1 r,4r)-4-(pyridin-4-yloxy)cyclohexyl) propanamide] | 6.9 |  |  | 3220 | 2760 | 6.79 | 0.682
 |  | O=C(CCSc1nc2ccccc2c(=O)[nH]1)N[C@H]1CC[C@H](Oc2cccc(Cl)c2)CC1 [Example 112, N-((1r,4r)-4-(3-chlorophenoxy)cyclohexyl)-3-((4-oxo-3,4-dihydroquinazolin-2-yl)thio) propanamide] | 120 |  |  |  | > 85000 | 105 | > 50
 |  | N#Cc1ccc(O[C@H]2CC[C@H](NC(=O)CCSc3nc4ccccc4c(=O)[nH]3)CC2)cc1Cl [Example 114, N-((1r,4r)-4-(3-chloro-4-cyanophenoxy)cyclohexyl)-3-((4-oxo-3,4-dihydroquinazolin-2-yl)thio)propanamide] | 8.08 |  |  |  | > 85000 | 8.42 | 1.08
 |  | N#Cc1cc(O[C@H]2CC[C@H](NC(=O)CCSc3nc4ccccc4c(=O)[nH]3)CC2)ccc1Cl [Example 113, N-((1r,4r)-4-(4-chloro-3-cyanophenoxy)cyclohexyl)-3-((4-oxo-3,4-dihydroquinazolin-2-yl)thio)propanamide] | 24.2 |  |  |  | > 85000 | 56 | > 50
 |  | O=C(CCCSc1nc2ccccc2c(=O)[nH]1)N[C@H]1CC[C@H](c2nnc(-c3ccccc3)o2)CC1 [Example 110, 4-((4-oxo-3,4-dihydroquinazolin-2-yl)thio)-N-((1r,4r)-4-(5-phenyl-1,3,4-oxadiazol-2-yl)cyclohexyl)butanamide] | 104 |  |  | 1440 | 376 | 132 | 1.78
